Patent publication US20160158200A1, “Combinations of Hepatitis C Virus Inhibitors” (priority 2013, published 2016)

Tests used:
[1] = tested on: HCV genotype 1a L31V variant with leucine 31 changed to valine in the NS5A protein; assay: microbe, parasite or virus in culture; format: cell-based; conditions: genotype 1a L31V replicon; test compound titrated with compound N47 fixed at 200 nM versus singly
[2] = tested on: HCV genotype 1a Y93H variant with tyrosine 93 changed to histidine in the NS5A protein; assay: microbe, parasite or virus in culture; format: cell-based; conditions: genotype 1a Y93H replicon; test compound titrated with compound N47 fixed at 200 nM versus singly
Outline: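 In an HCV genotype 1a replicon cell-based assay carrying the NS5A Y93H substitution, BMS-790052 was tested alone and in combination with a fixed amount of a second test compound. The combinations were examined for synergistic activity.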

SMILES | Fold-Synergistic G-1a (L31V) [1] [fold] | Fold-Synergistic G-1a (Y93H) [2] [fold]
O=C(Nc1ccc(/C=C/c2ccc(NC(=O)[C@@H]3CCCN3C(=O)Cc3ccccc3)cc2)cc1)[C@@H]1CCCN1C(=O)Cc1ccccc1 | <10 | <10
COC(=O)N[C@H](C(=O)N1CCn2c(-c3ccc(-c4ccc(-c5cnc6n5CCN(C(=O)[C@@H](NC(=O)OC)C(C)C)C6)cc4)cc3)cnc2C1)C(C)C | <10 | <10
CCC1(c2ccc(NC(=O)[C@@H]3C[C@H]4C[C@H]4N3C(=O)[C@@H](NC(=O)OC)C(C)C)cc2)CC2C3CC4CC(c5ccc(NC(=O)[C@@H]6C[C@H]7C[C@H]7N6C(=O)[C@@H](NC(=O)OC)C(C)C)cc5)(C3)CC2C4C1 (stereo partly drawn) | <10 | <10
COC(=O)N[C@H](C(=O)N1CCCC1c1nc2cc(-c3ccc4cc(-c5ccc(-c6cnc([C@@H]7CCCN7C(=O)[C@@H](NC(=O)OC)C(C)C)[nH]6)cc5)ccc4c3)ccc2[nH]1)C(C)C (stereo partly drawn) | >10 | >10
COc1cccc2c(C(=O)N3CCC[C@H]3C(=O)Nc3ccc(-c4ncc(-c5ccc6nc([C@@H]7CCCN7C(=O)c7nc(Cl)cc8c(OC)cccc78)[nH]c6c5)o4)cc3)nc(Cl)cc12 | <10 | <10
COC(=O)N[C@H](C(=O)N1CC2(CC2)C[C@H]1c1nc(-c2ccc3c(c2)C(F)(F)c2cc(-c4ccc5nc([C@@H]6[C@H]7CC[C@H](C7)N6C(=O)[C@@H](NC(=O)OC)C(C)C)[nH]c5c4)ccc2-3)c[nH]1)C(C)C | >10 | >100
COC(=O)N[C@@H](C(=O)N1CCC[C@H]1c1nc2ccc(C(=O)c3ccc4nc([C@@H]5CCCN5C(=O)[C@H](NC(=O)OC)c5ccccc5)[nH]c4c3)cc2[nH]1)c1ccccc1 | <10 | <10
COC(=O)N[C@@H](C(=O)N1CCC[C@H]1c1nc(-c2ccc(CCc3ccc(-c4c[nH]c([C@@H]5CCCN5C(=O)[C@H](NC(=O)OC)c5ccccc5)n4)cc3)cc2)c[nH]1)c1ccccc1 | <10 | <10
COC(=O)N[C@H](C(=O)N1CCC[C@H]1c1nc2cc(C#Cc3ccc4[nH]c([C@@H]5CCCN5C(=O)[C@@H](NC(=O)OC)C(C)C)nc4c3)ccc2[nH]1)C(C)C | <10 | >10
COC(=O)N[C@H](C(=O)N1CCC[C@H]1c1nc(-c2ccc(-c3ccc4c(c3)CCCCc3[nH]c([C@@H]5CCCN5C(=O)[C@@H](NC(=O)OC)C(C)C)nc3-4)cc2)c[nH]1)C(C)C | >100 | >100
COC(=O)N[C@H](C(=O)N1[C@@H]2C[C@@H]2C[C@H]1c1nc2ccc(-c3ccc4cc(-c5ccc6nc([C@@H]7C[C@H]8C[C@H]8N7C(=O)[C@@H](NC(=O)OC)C(C)C)[nH]c6c5)ccc4c3)cc2[nH]1)C(C)C | >10 | >10
O=C(Cc1ccccc1)N1CCC[C@H]1c1nc2cc(C#Cc3ccc4nc([C@@H]5CCCN5C(=O)Cc5ccccc5)[nH]c4c3)ccc2[nH]1 | <10 | <10
COC(=O)N[C@H](C(=O)N1CCC[C@H]1c1nc2cc(-c3ccc4cc(-c5ccc6[nH]c([C@@H]7CCCN7C(=O)[C@@H](NC(=O)OC)C(C)C)nc6c5)ccc4c3)ccc2[nH]1)C(C)C | >10 | >10
O=C(Nc1ccc(/C=C/c2ccc(NC(=O)[C@@H]3COCN3C(=O)OCc3ccccc3)cc2)cc1)[C@@H]1COCN1C(=O)OCc1ccccc1 | <10 | <10
C[C@H](NC(=O)OCc1ccccc1)c1nc2ccc(CCc3ccc4nc([C@H](C)NC(=O)OCc5ccccc5)[nH]c4c3)cc2[nH]1 | <10 | <10
COC(=O)N[C@H](C(=O)N1[C@@H]2C[C@@H]2C[C@H]1c1nc2cc(-c3ccc(Oc4cccc5[nH]c([C@@H]6C[C@H]7C[C@H]7N6C(=O)[C@@H](NC(=O)OC)C(C)C)nc45)cc3)ccc2[nH]1)C(C)C | >10 | >100
CC[C@H]1CC[C@@H](c2ncc(-c3ccc(-c4ccc(-c5cnc([C@@H]6CC[C@H](CC)N6C(=O)[C@@H](NC(=O)OC)C(C)C)[nH]5)cc4)cc3)[nH]2)N1C(=O)[C@@H](NC(=O)OC)C(C)C | >100 | >100
COC(=O)N[C@H](C(=O)N1CCC[C@H]1c1nc2ccc3cc(-c4ccc5c(ccc6nc([C@@H]7CCCN7C(=O)[C@@H](NC(=O)OC)C(C)C)[nH]c65)c4)ccc3c2[nH]1)C(C)C | >100 | >100

SMILES | Fold-Synergistic G-1a (L31V) [1] [fold] | Fold-Synergistic G-1a (Y93H) [2] [fold]
CN(C)[C@@H](C(=O)N1CCC[C@H]1c1nc2ccc(-c3ccc4nc([C@@H]5CCCN5C(=O)[C@@H](c5ccccc5)N(C)C)[nH]c4c3)cc2[nH]1)c1ccccc1 | <10 | <10
COC(=O)N[C@H](C(=O)N1[C@@H](C)CC[C@H]1c1ncc(-c2ccc3c(c2)CCc2cc(-c4cnc([C@@H]5CC[C@H](C)N5C(=O)[C@@H](NC(=O)OC)C(C)C)[nH]4)ccc2-3)[nH]1)C(C)C | >100 | >100
COC(=O)N[C@H](C(=O)N1[C@@H](C)CC[C@H]1c1ncc(-c2ccc(-c3ccc4cc(-c5cnc([C@@H]6CC[C@H](C)N6C(=O)[C@@H](NC(=O)OC)C(C)C)[nH]5)ccc4c3)cc2)[nH]1)C(C)C | <10 | >100
CC(C)[C@H](NC(=O)OCc1ccccc1)C(=O)Nc1ccc(-c2cnc(-c3ccc(NC(=O)[C@@H](NC(=O)OCc4ccccc4)C(C)C)cc3)o2)cc1 | <10 | <10
COC(=O)N[C@H](C(=O)N1CCC[C@H]1c1nc2cc(C#Cc3ccc(-c4[nH]cnc4[C@@H]4CCCN4C(=O)[C@@H](NC(=O)OC)C(C)C)cc3)ccc2[nH]1)C(C)C | <10 | >10
COC(=O)N[C@H](C(=O)N1[C@@H]2C[C@@H]2C[C@H]1c1nc2cc(Oc3cccc(-c4ccc5[nH]c([C@@H]6C[C@H]7C[C@H]7N6C(=O)[C@@H](NC(=O)OC)C(C)C)nc5c4)c3)ccc2[nH]1)C(C)C | >10 | >10
COC(=O)N[C@H](C(=O)N1[C@@H]2C[C@@H]2C[C@H]1c1nc(-c2ccn3nc(-c4ccc(-c5cnc([C@@H]6C[C@H]7C[C@H]7N6C(=O)[C@@H](NC(=O)OC)C(C)C)[nH]5)cc4)cc3c2)c[nH]1)C(C)C | >100 | >100
COC(=O)N[C@@H](C(=O)N1CCC[C@H]1c1nc(-c2ccc(Oc3ccc(-c4c[nH]c([C@@H]5CCCN5C(=O)[C@H](NC(=O)OC)c5ccccc5)n4)cc3)cc2)c[nH]1)c1ccccc1 | <10 | <10
O=C(Nc1ccc(/C=C/c2ccc(NC(=O)[C@@H]3CCCCN3C(=O)OCc3ccccc3)cc2)cc1)[C@@H]1CCCCN1C(=O)OCc1ccccc1 | <10 | <10
COC(=O)N[C@@H](C(=O)N1CCC[C@H]1c1ncc(-c2nc3cc4sc(-c5cnc([C@@H]6CCCN6C(=O)[C@H](NC(=O)OC)c6ccccc6)[nH]5)nc4cc3s2)[nH]1)c1ccccc1 | <10 | >100
COC(=O)N[C@H](C(=O)N1[C@@H]2CCC[C@@H]2C[C@H]1c1nc(-c2ccc(-c3ccc(-c4c[nH]c([C@@H]5C[C@H]6CCC[C@H]6N5C(=O)[C@@H](NC(=O)OC)C(C)C)n4)cc3)cc2)c[nH]1)C(C)C | >100 | >100
COC(=O)N[C@H](C(=O)N1CCC[C@H]1c1nc2ccc(-c3ccc4nc(-c5ccc6nc([C@@H]7CCCN7C(=O)[C@@H](NC(=O)OC)C(C)C)[nH]c6c5)ccc4c3)cc2[nH]1)C(C)C | >10 | >10
COC(=O)N[C@H](C(=O)N1CCC[C@H]1c1ncc(-c2ccc(-c3ncc(-c4cnc([C@@H]5CCCN5C(=O)[C@@H](NC(=O)OC)C(C)C)[nH]4)cn3)cc2)[nH]1)C(C)C | >100 | >100
COC(=O)N[C@H](C(=O)N1CCC[C@H]1c1ncc(C#Cc2ccc3cc(C#Cc4cnc([C@@H]5CCCN5C(=O)[C@@H](NC(=O)OC)C(C)C)[nH]4)ccc3c2)[nH]1)C(C)C | >10 | <10
Cc1nc2ccc(-c3cnc(-c4ccc5nc([C@@H]6CCCN6C(=O)[C@@H](c6ccccc6)N(C)C)[nH]c5c4)o3)cc2[nH]1 | <10 | <10
COC(=O)N[C@H](C(=O)N1[C@@H]2C[C@@H]2C[C@H]1c1ncc(-c2ccc([C@@H]3C[C@H]3c3ccc(-c4cnc([C@@H]5C[C@H]6C[C@H]6N5C(=O)[C@@H](NC(=O)OC)C(C)C)[nH]4)cc3)cc2)[nH]1)C(C)C | >10 | >10
O=C(Cc1ccccc1)N1CCC[C@H]1c1nc2cc(CCc3ccc4nc([C@@H]5CCCN5C(=O)Cc5ccccc5)[nH]c4c3)ccc2[nH]1 | <10 | <10
O=C(Nc1ccc(-c2ccc(NC(=O)[C@@H]3CCCN3C(=O)Cc3ccccc3)cc2)cc1)[C@@H]1CCCN1C(=O)Cc1ccccc1 | <10 | <10
